Results from patent US9499538B2, “Estrogen receptor modulators and uses thereof” (Seragon Pharmaceuticals, Inc., priority 2012, dated 2016).

Assays:
[1] = system: MCF-7 cells; assay: Breast Cancer Cell Viability Assays (MCF-7, CellTiter-Glo); format: cell-based; details: 5 days' compound exposure; for IC50: Homo sapiens, MCF7, 120 h
How it was run: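 MCF-7 cells (320/well, RPMI with 10% FBS) exposed for 5 days to an eleven-point semilog series, 0.3–0.000003 μM final. Viability read by CellTiter-Glo luminescence, expressed as background-corrected percent of untreated cells.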

[2] = biological target: T1, ER-α in MCF-7 cells (Homo sapiens, UniProt P03372); assay: Breast Cancer Cell ER-α In Cell Western Assay (SP1); format: cell-based; details: 4 or 24 hr post compound addition; for Emax: MCF7, SP1 antibody, read-out: ER-α In Cell Western Assay (SP1) Max Response; for DC50: SP1 antibody, read-out: ER-α In Cell Western Assay (SP1) IC50
T1 construct: endogenous in cells; host or cells: MCF-7
T1 sequence (P03372 1-595): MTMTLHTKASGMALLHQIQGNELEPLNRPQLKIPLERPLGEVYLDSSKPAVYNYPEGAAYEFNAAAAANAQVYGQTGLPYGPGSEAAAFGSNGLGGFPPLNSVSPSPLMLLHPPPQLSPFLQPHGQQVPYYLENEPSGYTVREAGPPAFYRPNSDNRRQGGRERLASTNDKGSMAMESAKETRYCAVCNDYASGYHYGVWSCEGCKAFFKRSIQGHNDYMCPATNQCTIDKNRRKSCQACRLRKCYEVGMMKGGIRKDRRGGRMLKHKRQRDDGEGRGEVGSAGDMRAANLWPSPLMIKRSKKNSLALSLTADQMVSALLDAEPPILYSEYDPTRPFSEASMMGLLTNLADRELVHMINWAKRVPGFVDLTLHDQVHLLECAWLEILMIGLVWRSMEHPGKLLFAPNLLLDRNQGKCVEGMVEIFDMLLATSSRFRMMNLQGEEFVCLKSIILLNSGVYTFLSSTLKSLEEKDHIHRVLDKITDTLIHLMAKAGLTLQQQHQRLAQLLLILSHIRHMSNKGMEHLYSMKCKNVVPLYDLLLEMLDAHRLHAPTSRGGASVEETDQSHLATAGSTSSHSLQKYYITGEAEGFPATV
How it was run: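 MCF-7 cells in charcoal-stripped FBS medium, treated with 11-point semilog dilutions (0.3–0.000003 μM final) for 4 or 24 h. Fixed cells immunostained with SP1 antibody (800 nm) and DRAQ5 DNA (700 nm); ER/DNA ratio expressed as % of untreated cells.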

| SMILES | MCF7 Viability Assay Max Response [1] | IC50 [1] | Emax [2] | DC50 [2] |
| --- | --- | --- | --- | --- |
| N#Cc1cc(Cl)ccc1/C(=C(\c1ccc(/C=C/C(=O)O)cc1)c1ccc2[nH]ncc2c1)C1CCC1 [Example 109, (E)-3-(4-((E)-2-(4-Chloro-2-cyanophenyl)-2-cyclobutyl-1-(1H-indazol-5-yl)vinyl)phenyl)acrylic acid] | ++ (++ = a single % value ≧ 40%) | ≤ 100 nM | ≥ 40% | ≤ 100 nM |
| CCOc1cc(C)c(/C(=C(\c2ccc(/C=C/C(=O)O)cc2)c2ccc3[nH]nc(F)c3c2)C2CCC2)cn1 [Example 110, (E)-3-(4-((E)-2-Cyclobutyl-2-(6-ethoxy-4-methylpyridin-3-yl)-1-(3-fluoro-1H-indazol-5-yl)vinyl)phenyl)acrylic acid] | ++ (++ = a single % value ≧ 40%) | ≤ 100 nM | ≥ 40% | ≤ 100 nM |
| COc1ncc(/C(=C(\c2ccc(/C=C/C(=O)O)cc2)c2ccc3[nH]nc(F)c3c2)C2CCC2)c(C(F)(F)F)n1 [Example 111, (E)-3-(4-((E)-2-Cyclobutyl-1-(3-fluoro-1H-indazol-5-yl)-2-(2-methoxy-4-(trifluoromethyl)pyrimidin-5-yl)vinyl)phenyl)acrylic acid] | ++ (++ = a single % value ≧ 40%) | ≤ 100 nM | ≥ 40% | ≤ 100 nM |
| COc1cc(C)c(/C(=C(\c2ccc(/C=C/C(=O)O)cc2)c2ccc3[nH]nc(F)c3c2)C2CCC2)cn1 [Example 112, (E)-3-(4-((E)-2-Cyclobutyl-1-(3-fluoro-1H-indazol-5-yl)-2-(6-methoxy-4-methylpyridin-3-yl)vinyl)phenyl)acrylic acid] | ++ (++ = a single % value ≧ 40%) | ≤ 100 nM | ≥ 40% | ≤ 100 nM |
| COc1ccc(/C(=C(\c2ccc(/C=C/C(=O)O)cc2)c2ccc3[nH]nc(F)c3c2)C2CC2)c(F)c1 [Example 113, (E)-3-(4-((E)-2-Cyclopropyl-1-(3-fluoro-1H-indazol-5-yl)-2-(2-fluoro-4-methoxyphenyl)vinyl)phenyl)acrylic acid] | ++ (++ = a single % value ≧ 40%) | ≤ 100 nM | ≥ 40% | ≤ 100 nM |
| COc1ccc(/C(=C(\c2ccc(/C=C/C(=O)O)cc2)c2ccc3[nH]nc(F)c3c2)C2CC2)c(Cl)c1 [Example 114, (E)-3-(4-((E)-2-(2-Chloro-4-methoxyphenyl)-2-cyclopropyl-1-(3-fluoro-1H-indazol-5-yl)vinyl)phenyl)acrylic acid] | ++ (++ = a single % value ≧ 40%) | ≤ 100 nM | ≥ 40% | ≤ 100 nM |
| COc1ccc(/C(=C(\c2ccc(/C=C/C(=O)O)cc2)c2ccc3[nH]nc(F)c3c2)C2CC2)c(C)c1 [Example 115, (E)-3-(4-((E)-2-Cyclopropyl-1-(3-fluoro-1H-indazol-5-yl)-2-(4-methoxy-2-methylphenyl)vinyl)phenyl)acrylic acid] | ++ (++ = a single % value ≧ 40%) | ≤ 100 nM | ≥ 40% | ≤ 100 nM |
| COc1cc(C)c(/C(=C(\c2ccc(/C=C/C(=O)O)cc2)c2ccc3[nH]nc(F)c3c2)C2CC2)cn1 [Example 116, (E)-3-(4-((E)-2-Cyclopropyl-1-(3-fluoro-1H-indazol-5-yl)-2-(6-methoxy-4-methylpyridin-3-yl)vinyl)phenyl)acrylic acid] | ++ (++ = a single % value ≧ 40%) | ≤ 100 nM | ≥ 40% | ≤ 100 nM |
| CCOc1cc(C)c(/C(=C(\c2ccc(/C=C/C(=O)O)cc2)c2ccc3[nH]nc(F)c3c2)C2CC2)cn1 [Example 117, (E)-3-(4-((E)-2-Cyclopropyl-2-(6-ethoxy-4-methylpyridin-3-yl)-1-(3-fluoro-1H-indazol-5-yl)vinyl)phenyl)acrylic acid] | ++ (++ = a single % value ≧ 40%) | ≤ 100 nM | ≥ 40% | ≤ 100 nM |
| Cc1cc(C#N)ccc1/C(=C(\c1ccc(/C=C/C(=O)O)cc1)c1ccc2[nH]nc(F)c2c1)C1CC1 [Example 118, (E)-3-(4-((E)-2-(4-Cyano-2-methylphenyl)-2-cyclopropyl-1-(3-fluoro-1H-indazol-5-yl)vinyl)phenyl)acrylic acid] | ++ (++ = a single % value ≧ 40%) | ≤ 100 nM | ≥ 40% | ≤ 100 nM |
| N#Cc1ccc(/C(=C(\c2ccc(/C=C/C(=O)O)cc2)c2ccc3[nH]nc(F)c3c2)C2CC2)c(Cl)c1 [Example 119, (E)-3-(4-((E)-2-(2-Chloro-4-cyanophenyl)-2-cyclopropyl-1-(3-fluoro-1H-indazol-5-yl)vinyl)phenyl)acrylic acid] | ++ (++ = a single % value ≧ 40%) | ≤ 100 nM | ≥ 40% | ≤ 100 nM |
| N#Cc1cc(Cl)ccc1/C(=C(\c1ccc(/C=C/C(=O)O)cc1)c1ccc2[nH]nc(F)c2c1)C1CC1 [Example 120, (E)-3-(4-((E)-2-(4-Chloro-2-cyanophenyl)-2-cyclopropyl-1-(3-fluoro-1H-indazol-5-yl)vinyl)phenyl)acrylic acid] | ++ (++ = a single % value ≧ 40%) | ≤ 100 nM | ≥ 40% | ≤ 100 nM |
| COc1ccc(/C(=C(\c2ccc(/C=C/C(=O)O)cc2)c2ccc3[nH]nc(F)c3c2)C2CC2)c(C#N)c1 [Example 121, (E)-3-(4-((E)-2-(2-Cyano-4-methoxyphenyl)-2-cyclopropyl-1-(3-fluoro-1H-indazol-5-yl)vinyl)phenyl)acrylic acid] | ++ (++ = a single % value ≧ 40%) | ≤ 100 nM | ≥ 40% | ≤ 100 nM |
| CS(=O)(=O)c1cnc(Oc2ccc(/C(=C(\c3ccc(/C=C/C(=O)O)cc3)c3ccc4[nH]nc(F)c4c3)C3CCC3)cc2)cn1 [Example 122, (E)-3-(4-((E)-2-Cyclobutyl-1-(3-fluoro-1H-indazol-5-yl)-2-(4-((5-(methylsulfonyl)pyrazin-2-yl)oxy)phenyl)vinyl)phenyl)acrylic acid] | ++ (++ = a single % value ≧ 40%) | ≤ 100 nM | ≥ 40% | ≤ 100 nM |
| O=C(O)/C=C/c1ccc(/C(=C(\c2ccccc2F)C2CCC2)c2ccc3[nH]nc(F)c3c2)cc1 [Example 123, (E)-3-(4-((E)-2-Cyclobutyl-1-(3-fluoro-1H-indazol-5-yl)-2-(2-fluorophenyl)vinyl)phenyl)acrylic acid] | ++ (++ = a single % value ≧ 40%) | ≤ 100 nM | ≥ 40% | ≤ 100 nM |
| O=C(O)/C=C/c1ccc(/C(=C(\c2ccccc2Cl)C2CCC2)c2ccc3[nH]nc(F)c3c2)cc1 [Example 124, (E)-3-(4-((E)-2-(2-Chlorophenyl)-2-cyclobutyl-1-(3-fluoro-1H-indazol-5-yl)vinyl)phenyl)acrylic acid] | ++ (++ = a single % value ≧ 40%) | ≤ 100 nM | ≥ 40% | ≤ 100 nM |
| Cc1ccccc1/C(=C(\c1ccc(/C=C/C(=O)O)cc1)c1ccc2[nH]nc(F)c2c1)C1CCC1 [Example 125, (E)-3-(4-((E)-2-Cyclobutyl-1-(3-fluoro-1H-indazol-5-yl)-2-(o-tolyl)vinyl)phenyl)acrylic acid] | ++ (++ = a single % value ≧ 40%) | ≤ 100 nM | ≥ 40% | ≤ 100 nM |
| Cc1cscc1/C(=C(\c1ccc(/C=C/C(=O)O)cc1)c1cccc2[nH]ncc12)C1CCC1 [Example 126, (E)-3-(4-((E)-2-Cyclobutyl-1-(1H-indazol-4-yl)-2-(4-methylthiophen-3-yl)vinyl)phenyl)acrylic acid] | ++ (++ = a single % value ≧ 40%) | ≤ 100 nM | ≥ 40% | ≤ 100 nM |
| COc1cc(C)c(/C(=C(\c2ccc(/C=C/C(=O)O)cc2)c2cccc3[nH]ncc23)C2CCC2)cn1 [Example 127, (E)-3-(4-((E)-2-Cyclobutyl-1-(1H-indazol-4-yl)-2-(6-methoxy-4-methylpyridin-3-yl)vinyl)phenyl)acrylic acid] | ++ (++ = a single % value ≧ 40%) | ≤ 100 nM | ≥ 40% | ≤ 100 nM |
| O=C(O)/C=C/c1ccc(/C(=C(\c2cccnc2)C2CCC2)c2ccc3[nH]nc(F)c3c2)cc1 [Example 128, (E)-3-(4-((E)-2-Cyclobutyl-1-(3-fluoro-1H-indazol-5-yl)-2-(pyridin-3-yl)vinyl)phenyl)acrylic acid] | + (+ = a single % value < 40%) | > 100 nM | ≥ 40% | ≤ 100 nM |
